“And” between values parts separate entries of the source, which are not always exact repeats. Identical values can stand only once.

In experiment [1] the target is T1, PaMTIP (Pseudomonas aeruginosa, UniProt Q9HZK1). The class given is biochemical.
For experiment [2], the target named is T1, PaMTIP. In words: PaMTIP inhibition assay. The class given is biochemical.
Where [3] appears, read: phosphorolysis, 25 °C, 100 mM Hepes pH 7.4, 100 mM phosphate.
Where [4] appears, read: initial phase, 1 nM PaMTIP, 2 mM MTI, 25 °C, pH 7.4.
The mark [5] stands for this setting: second binding phase after slow-onset, 1 nM PaMTIP, 2 mM MTI, 25 °C, pH 7.4.

T1 sequence (Q9HZK1 whole entry): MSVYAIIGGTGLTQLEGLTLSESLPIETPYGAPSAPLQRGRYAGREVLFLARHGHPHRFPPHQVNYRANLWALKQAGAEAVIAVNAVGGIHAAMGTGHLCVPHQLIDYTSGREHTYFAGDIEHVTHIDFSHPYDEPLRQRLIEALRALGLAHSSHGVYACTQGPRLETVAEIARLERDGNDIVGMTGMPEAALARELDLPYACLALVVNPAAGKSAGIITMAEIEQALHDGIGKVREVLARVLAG

Turning to 5'-methylthioadenosine [MTA], in experiment [1] (setting [3]), the turnover number (kcat) (in general, the number of substrate molecules converted per active site and unit of time at saturation) is recorded as < 10^−4 s^−1. Moreover, in experiment [2] (competitive inhibitor of MTI, 200 µM MTI), the affinity corresponds to a Ki of 70000 ± 20000 nM.

As to `CSC[C@H]1N[C@@H](c2c[nH]c3c(=O)[nH]cnc23)[C@H](O)[C@@H]1O` [MT-ImmH, 5'-methylthio-ImmH], the “fold tighter binding than MT-DADMe-ImmH (Ki*)” value in experiment [2] (PaMTIP) stood at 4 fold. Also, the Ki (as a rule, the equilibrium dissociation constant of an inhibitor or competing ligand from its target) in experiment [2] (setting [4]) amounted to 0.84 ± 0.05 nM; in experiment [2] (setting [5]), 0.076 ± 0.005 nM.

On to 5'-methylthioinosine [MTI], for which the slow hydrolysis rate in experiment [1] (hydrolysis to hypoxanthine and 5-methylthioribose) stood at 3.8e-05 s⁻¹. Moreover, in experiment [1] (setting [3]), the Michaelis constant (Km) (as a rule, the substrate concentration at which the rate is half of its maximum) is 2600 ± 400 nM; the kcat was 4.8 s⁻¹ and 4.8 ± 0.2 s⁻¹.

Regarding `O=c1[nH]cnc2c1ncn2[C@@H]1O[C@H](CO)[C@@H](O)[C@H]1O` [inosine], the kcat in experiment [1] (setting [3]) is 0.57 s⁻¹ and 0.57 ± 0.04 s⁻¹.

Consider `Nc1ncnc2c1ncn2[C@@H]1O[C@H](CO)[C@@H](O)[C@H]1O` [adenosine], for which, in experiment [1] (setting [3]), the kcat is 0.0549 s⁻¹ and 0.0549 ± 0.0005 s⁻¹. In addition, the “fold decrease of kcat/Km in comparison with MTI” value in experiment [1] (relative to MTI) is listed as 750 fold.

Take `O=c1[nH]cnc2c([C@@H]3N[C@H](CSc4ccccc4)[C@@H](O)[C@H]3O)c[nH]c12` [PhT-ImmH, 5'-phenylthio-ImmH]: the slow-onset inhibition entry in experiment [2] (PaMTIP) is on record as “induces slow-onset inhibition”. The Ki in experiment [2] (setting [4]) turned out to be 0.66 ± 0.09 nM; in experiment [2] (setting [5]), 0.035 ± 0.003 nM.

For the compound `CSC[C@H]1CN(Cc2c[nH]c3c(=O)[nH]cnc23)C[C@@H]1O` [MT-DADMe-ImmH, 5'-methylthio-DADMe-ImmH], the inhibition constant (Ki) in experiment [2] (setting [4]) turned out to be 0.8 ± 0.1 nM; in experiment [2] (setting [5]) it was 0.34 ± 0.02 nM.

The values above are taken from publication PMC3040260 (Biochemistry, 2011).
